15 compounds from PubChem BioAssay (NCI) can be followed below.

The structures appear in SMILES notation.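 Step 1: Grow cells in 96-well plates. Step 2: Expose to compound for 48 hours at 5 concentrations. Step 3: Interpolate endpoints linearly; if unreached, use highest concentration. At the GI50, growth is halved. TGI: concentration producing complete growth inhibition.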

Among the test systems are HCT-15 colon; DMS 273 small cell lung; M19-MEL melanoma; KM12 colon; DMS 114 small cell lung; OVCAR-3 ovarian; LXFL 529 NSCLC; DLD-1 colon; HS 578T breast; T-47D breast; MCF7 breast; NCI/ADR-RES ovarian.
Holding throughout (experiment): NCI anticancer screen, dose series, 48 h

As for `c1ccc(-c2nnc(-c3nn(-c4ccccc4)c4nc5ccccc5nc34)o2)cc1`, the TGI in the assay on HCT-15 colon, in the assay on DMS 273 small cell lung, in the assay with M19-MEL melanoma, in the assay with KM12 colon, in the assay with DMS 114 small cell lung and with OVCAR-3 ovarian was more than 100 µM in each case. The TGI in the assay on LXFL 529 NSCLC and in the assay on DLD-1 colon was more than 100 µM throughout.

On to `O=C1/C(=C/c2ccccc2)CN(C(=O)Oc2ccc(Cl)cc2)C/C1=C\c1ccccc1`, for which the TGI was found to be 2.73 µM in the assay with HCT-15 colon; 4.18 µM with DMS 273 small cell lung; 2.41 µM in the assay on M19-MEL melanoma; 3.28 µM in the assay with KM12 colon; 3.68 µM in the assay with DMS 114 small cell lung; 10.6 µM in the assay with OVCAR-3 ovarian. The results for the TGI with LXFL 529 NSCLC and with DLD-1 colon were 3.64 µM and 3.61 µM, respectively.

In the case of `CN(C)c1ccc(/C=C2\C[N+](C)(C)C/C(=C\c3ccc(N(C)C)cc3)C2=O)cc1`, the TGI in the assay on HCT-15 colon is more than 100 µM; in the assay with HS 578T breast it was more than 100 µM; in the assay on T-47D breast, 46.6 µM; with DMS 273 small cell lung it was 18.5 µM; in the assay on M19-MEL melanoma it was 30.3 µM; with KM12 colon, 19.1 µM. For the same compound, the TGI with DMS 114 small cell lung was 26.1 µM; in the assay on OVCAR-3 ovarian, 17.2 µM; in the assay with MCF7 breast, 30.5 µM; in the assay on LXFL 529 NSCLC it was 20.4 µM; in the assay with DLD-1 colon, more than 100 µM.

On to `COc1ccc(N=Cc2cc(OC)c(OC)c(OC)c2)cc1`, for which the TGI in the assay on HCT-15 colon, in the assay on DMS 273 small cell lung, with M19-MEL melanoma, with KM12 colon, with DMS 114 small cell lung and in the assay with OVCAR-3 ovarian was more than 100 µM throughout. Also, the TGI with LXFL 529 NSCLC and in the assay with DLD-1 colon was more than 100 µM in each case. Besides, the GI50 was 33 µM with DMS 273 small cell lung and more than 100 µM in the assay on OVCAR-3 ovarian.

For the compound `COc1cc2c(c(O)c1C)C(=O)C(Cl)=CC2=O`, the TGI in the assay on HCT-15 colon worked out at 27.6 µM; with HS 578T breast it was 97.4 µM; in the assay with T-47D breast, 5.22 µM; with DMS 273 small cell lung it was 34.5 µM; in the assay with NCI/ADR-RES ovarian, 66.7 µM; with M19-MEL melanoma, 20.9 µM. Besides, the TGI in the assay on KM12 colon was determined as 42.1 µM; in the assay with DMS 114 small cell lung it was 32.8 µM; in the assay on OVCAR-3 ovarian it was 24.3 µM; in the assay on MCF7 breast it was 15.8 µM; in the assay on LXFL 529 NSCLC, 19.4 µM; in the assay on DLD-1 colon, 48.5 µM.

With `Cc1c(C(=O)/C=C/c2cccc3ccccc23)[n+](=O)c2ccccc2n1[O-]`, the TGI in the assay on HCT-15 colon worked out at 27 µM; in the assay on DMS 273 small cell lung, 24.5 µM; with M19-MEL melanoma it was 26.4 µM; in the assay on KM12 colon it was 27.1 µM; in the assay on DMS 114 small cell lung, 16.8 µM; in the assay with OVCAR-3 ovarian, 22.7 µM. Further, the TGI in the assay on LXFL 529 NSCLC came out at 20.6 µM; with DLD-1 colon, 23.3 µM.

`C1CN2N3CCCC23C1` (stereo not drawn): the TGI in the assay on HCT-15 colon, in the assay on DMS 273 small cell lung, in the assay with M19-MEL melanoma, in the assay on KM12 colon, in the assay on DMS 114 small cell lung and with OVCAR-3 ovarian was more than 100 µM throughout. The TGI in the assay with LXFL 529 NSCLC and in the assay with DLD-1 colon was more than 100 µM each time.

In the case of `Cc1cccc(C(C)(C)C)c1NC(=O)C(=O)Cc1nc2ccccc2s1`, the TGI in the assay on HCT-15 colon, in the assay on DMS 273 small cell lung, in the assay on M19-MEL melanoma, in the assay with KM12 colon, with DMS 114 small cell lung and with OVCAR-3 ovarian was more than 100 µM each time. The TGI in the assay on LXFL 529 NSCLC and in the assay on DLD-1 colon was more than 100 µM throughout.

As for `CN(C)CCNC(=O)c1cccc2nc3c(Cl)cccc3nc12`, the TGI in the assay on HCT-15 colon is 34.6 µM; in the assay with DMS 273 small cell lung, more than 100 µM; in the assay with M19-MEL melanoma, 13.1 µM; in the assay on KM12 colon, 30.4 µM; with DMS 114 small cell lung, 12.1 µM; with OVCAR-3 ovarian, more than 63.6 µM. Also, the TGI was more than 49.5 µM in the assay on LXFL 529 NSCLC and 42.2 µM in the assay on DLD-1 colon.

Consider `COC(=O)C(CC(=O)c1cc2c(cc1I)OCO2)Cc1cc(OC)c(OC)c(OC)c1I` (stereo not drawn), for which the TGI with HCT-15 colon, with DMS 273 small cell lung, in the assay on M19-MEL melanoma, in the assay on KM12 colon, with DMS 114 small cell lung and in the assay on OVCAR-3 ovarian was more than 100 µM each time. Moreover, the TGI with LXFL 529 NSCLC and in the assay with DLD-1 colon was more than 100 µM each time.

`O=C(O)c1cc(S(=O)(=O)N=NC=C2c3ccccc3N(O)c3ccccc32)ccc1O`: the TGI was 21.2 µM in the assay on HCT-15 colon; 34.6 µM in the assay with DMS 273 small cell lung; 58.6 µM in the assay with M19-MEL melanoma; more than 100 µM with KM12 colon; 50.8 µM in the assay on DMS 114 small cell lung; more than 100 µM with OVCAR-3 ovarian. The values for the TGI with LXFL 529 NSCLC and in the assay with DLD-1 colon were 28.6 µM and 64.6 µM, respectively.

`CN1CCCNCCN(CCc2ccccn2)CCCN(C)CC1`: the TGI in the assay on HCT-15 colon is more than 62.6 µM; with DMS 273 small cell lung, 81.5 µM; in the assay with M19-MEL melanoma, more than 100 µM; in the assay with KM12 colon, more than 100 µM; in the assay on DMS 114 small cell lung it was more than 58.2 µM; in the assay on OVCAR-3 ovarian, more than 100 µM. Moreover, the TGI in the assay with LXFL 529 NSCLC and in the assay on DLD-1 colon was more than 100 µM in each case.

`COc1ccc(/C=C(/C(=O)O)c2cc(OC)c(OC)c(OC)c2)cc1`: the TGI in the assay on DMS 273 small cell lung was more than 100 µM; in the assay on M19-MEL melanoma, more than 100 µM; with KM12 colon, more than 100 µM; in the assay with DMS 114 small cell lung it was more than 100 µM; in the assay with OVCAR-3 ovarian, 64.1 µM; in the assay with LXFL 529 NSCLC, more than 100 µM. The same compound came in with a TGI in the assay with DLD-1 colon of more than 100 µM.

Regarding `O=C1Oc2cc3c(c4cccc1c24)OCN(c1ccc(Cl)cc1)C3`, the TGI was more than 64.7 µM with HCT-15 colon; more than 100 µM in the assay with DMS 273 small cell lung; more than 57 µM with M19-MEL melanoma; more than 63.6 µM in the assay on KM12 colon; more than 57.2 µM in the assay on DMS 114 small cell lung; more than 57.4 µM in the assay with OVCAR-3 ovarian. The figures for the TGI with LXFL 529 NSCLC and with DLD-1 colon were 25 µM and more than 54.2 µM, respectively.

Turning to `O=S(=O)(O)C(O)/C=C/c1ccccc1` (stereo not drawn), the TGI with HCT-15 colon, in the assay on DMS 273 small cell lung, with M19-MEL melanoma, in the assay with KM12 colon, in the assay on DMS 114 small cell lung and with OVCAR-3 ovarian was more than 100 µM throughout. The TGI with LXFL 529 NSCLC and with DLD-1 colon was more than 100 µM in each case.
